Blank lines part the entries; values can stand above or below the molecule they belong to. Activity calls are given as the source filed them. The rule behind the calls is not given here.
What was measured:
Phosphodiesterase 4 = Phosphodiesterase 4 (Homo sapiens, UniProt P27815+Q08499+Q07343+Q08493); assay: Inhibition of PDE4 (unknown origin) using [3H]cAMP[…] as substrate incubated for 15 mins by phosphodiesterase scintillation proximity assay; type: protein assay
MRC5 [1] = assay: Anti-fibrotic activity in TGF-beta1-activated human MRC5 cells assessed as reduction in alpha-SMA protein expression incubated for 48 hrs by Western blot analysis; type: functional, cell-based; conditions: dose 5-20 µM
RAW264.7 [2] = assay: Antiinflammatory activity in LPS-induced mouse RAW264.7 cells assessed as reduction in TNF-alpha mRNA level at 10 to 20 uM preincubated with compound for 4 hrs followed by LPS stimulation and measured after 24 hrs by RT-qPCR analysis; type: functional, cell-based; conditions: dose 10-20 µM, time 28.0 hrs
MRC5 [3] = assay: Anti-fibrotic activity in TGF-beta1-activated human MRC5 cells assessed as reduction in FN1 mRNA level at 5 to 20 uM incubated for 48 hrs by RT-qPCR analysis; type: functional, cell-based; conditions: dose 5-20 µM
NIH3T3 [4] = assay: Cytotoxicity against mouse NIH3T3 cells assessed as reduction in cell viability incubated for 48 hrs; type: toxicity, cell-based; conditions: nih3t3, 48 h
MRC5 [5] = assay: Anti-fibrotic activity in TGF-beta1-activated human MRC5 cells assessed as reduction in COL-1 mRNA level at 5 to 20 uM incubated for 48 hrs by RT-qPCR analysis; type: functional, cell-based; conditions: dose 5-20 µM
NIH3T3 [6] = assay: Anti-fibrotic activity in TGF-beta1-induced mouse NIH3T3 cells assessed as reduction in fibronectin expression at 20 uM incubated for 48 hrs by Western blot analysis; type: functional, cell-based
MRC5 [7] = assay: Anti-fibrotic activity in TGF-beta1-activated human MRC5 cells assessed as reduction in FN1 protein expression incubated for 48 hrs by Western blot analysis; type: functional, cell-based; conditions: dose 5-20 µM
RAW264.7 [8] = assay: Cytotoxicity against mouse RAW264.7 cells assessed as reduction in cell viability at 10 to 160 uM incubated for 48 hrs by CCK8 assay; type: toxicity, cell-based; conditions: raw264.7, 48 h, dose 10-160 µM
RAW264.7 [9] = assay: Antiinflammatory activity in LPS-induced mouse RAW264.7 cells assessed as reduction in IL-6 mRNA level at 10 to 20 uM preincubated with compound for 4 hrs followed by LPS stimulation and measured after 24 hrs by RT-qPCR analysis; type: functional, cell-based; conditions: dose 10-20 µM, time 28.0 hrs
MRC5 [10] = assay: Anti-fibrotic activity in TGF-beta1-activated human MRC5 cells assessed as reduction in alpha-SMA protein expression at 20 uM incubated for 48 hrs by DAPI staining based immunofluorescence microscopic analysis; type: functional, cell-based
MRC5 [11] = assay: Anti-fibrotic activity in TGF-beta1-activated human MRC5 cells assessed as reduction in COL1 protein expression incubated for 48 hrs by Western blot analysis; type: functional, cell-based; conditions: dose 5-20 µM
MRC5 [12] = assay: Anti-fibrotic activity in TGF-beta1-activated human MRC5 cells assessed as reduction in alpha-SMA mRNA level at 5 to 20 uM incubated for 48 hrs by RT-qPCR analysis; type: functional, cell-based; conditions: dose 5-20 µM
MRC5 [13] = assay: Anti-fibrotic activity in TGF-beta1-activated human MRC5 cells assessed as reduction in COL1 protein expression at 20 uM incubated for 48 hrs by DAPI staining based immunofluorescence microscopic analysis; type: functional, cell-based
RAW264.7 [14] = assay: Antiinflammatory activity in LPS-induced mouse RAW264.7 cells assessed as reduction in IL-1beta mRNA level at 10 to 20 uM preincubated with compound for 4 hrs followed by LPS stimulation and measured after 24 hrs by RT-qPCR analysis; type: functional, cell-based; conditions: dose 10-20 µM, time 28.0 hrs
MRC5 [15] = assay: Anti-fibrotic activity in TGF-beta1-activated human MRC5 cells assessed as reduction in COL1 mRNA level at 10 uM incubated for 48 hrs by RT-qPCR analysis; type: functional, cell-based
MRC5 [16] = assay: Anti-fibrotic activity in TGF-beta1-activated human MRC5 cells assessed as reduction in FN1 mRNA level at 10 uM incubated for 48 hrs by RT-qPCR analysis; type: functional, cell-based
MRC5 [17] = assay: Anti-fibrotic activity in TGF-beta1-activated human MRC5 cells assessed as reduction in alpha-SMA mRNA level at 10 uM incubated for 48 hrs by RT-qPCR analysis; type: functional, cell-based

SMILES: COc1cc(-c2ccccc2)c(OC)c(O)c1-c1ccc(OCC=C(C)C)c(O)c1
IC50 (Phosphodiesterase 4): 3.5 µM

SMILES: COc1c(O)c(-c2ccccc2)c(O)c(OC)c1-c1ccc(O)cc1
IC50 (Phosphodiesterase 4): 0.62 µM

SMILES: COc1cc(-c2ccc(O)c(CC=C(C)C)c2)c(OC)c(O)c1-c1ccc(OCC=C(C)C)c(O)c1
IC50 (Phosphodiesterase 4): 3 µM

SMILES: COc1c(O)c(-c2ccccc2)c(O)c(OC)c1-c1ccccc1
IC50 (Phosphodiesterase 4): 0.4 µM

SMILES: Cc1ccc(=O)n(-c2ccccc2)c1
Activity (MRC5 [15]): Active
Activity (MRC5 [16]): Active
Activity (MRC5 [17]): Active

SMILES: COc1ccc(-c2c(OC)cc(-c3ccc(O)c(CC=C(C)C)c3)c(OC)c2O)cc1OC
IC50 (Phosphodiesterase 4): 1.8 µM

Further lines, with some results ahead:

IC50 (Phosphodiesterase 4): 1.2 µM
SMILES: COc1c(O)c(-c2ccccc2)c(OC(C)=O)c(OC)c1-c1ccccc1
Activity (MRC5 [1]): Dose-Dependent Effect
Activity (RAW264.7 [2]): Active
Activity (MRC5 [3]): Active
Activity (NIH3T3 [4]): Non-Toxic
Activity (MRC5 [5]): Active
Activity (NIH3T3 [6]): Active
Activity (MRC5 [7]): Dose-Dependent Effect
Activity (RAW264.7 [8]): Non-Toxic
Activity (RAW264.7 [9]): Active
Activity (MRC5 [10]): Active
Activity (MRC5 [11]): Dose-Dependent Effect
Activity (MRC5 [12]): Active
Activity (MRC5 [13]): Active
Activity (RAW264.7 [14]): Active

IC50 (Phosphodiesterase 4): 4.2 µM
SMILES: COc1cc(-c2ccc(O)cc2)c(OC)c(O)c1-c1ccc(O)c(CC=C(C)C)c1 [PRENYLTERPHENYLLIN]

IC50 (Phosphodiesterase 4): 16 µM
SMILES: COc1c(-c2ccc(O)cc2)cc(O)c(-c2ccccc2)c1O

From ChEMBL document CHEMBL5576089, “Discovery of Oxidized p-Terphenyls as Phosphodiesterase 4 Inhibitors from Marine-Derived Fungi” (J Nat Prod, 2024)
